The numbers were not newly measured in patent publication EP0002485B1, “Process for the preparation of marking compositions containing tin” (HOECHST AKTIENGESELLSCHAFT, priority 1977, dated 1979), which cites them from elsewhere.

For data set [1] the following is noted: labelled with Tc-99m; compared with pyro- and polyphosphates.
The conditions of data set [2]: time until optimum of skeletal accumulation.

As to “1-Hydroxyäthan-1,1-diphosphonsäure [HEDP]”, the Plasmaclearance entry in data set [1] is “bedeutend schnellere”.

As to Methylendiphosphonsäure [MDP], the “Anreicherung im Skelett erreicht das Optimum” value in data set [2] is given as “zwei”.
